Structures are written as SMILES. Where only a bound is given, the exact number is not on record here.

Series [1] addresses T1, recombinant human mGluR4a receptors (Homo sapiens, UniProt Q14833).
T1 construct: expressed in transfected cells
The experiment in a line: mGluR4 assay on HEK-expressing human mGluR4 (fluorescent cell based Ca2+ mobilization assay, FLIPR). The conditions noted are these: HEK-293 cells expressing hmGluR4; enhancement of EC25 glutamate response; mean of at least three independent experiments in duplicate; read-out: Ca^2+ Flux (mean EC50). An excerpt:
mGluR4 Assay on HEK-Expressing Human mGluR4
The compounds of the present invention are positive allosteric modulators of mGluR4 receptor. Their activity was examined on recombinant human mGluR4a receptors by detecting changes in intracellular Ca^2+ concentration, using the fluorescent Ca^2+-sensitive dye Fluo4-(AM) and a Fluorometric Imaging Plate Reader (FLIPR, Molecular Devices, Sunnyvale, Calif.).
The cDNA encoding the human metabotropic glutamate receptor (hmGluR4), (accession number NM_000841.1, NCBI Nucleotide database browser), was subcloned into an expression vector containing also the Hygromycin resistance gene. In parallel, the cDNA encoding a G protein allowing redirection of the activation signal to intracellular calcium flux was subcloned into a different expression vector containing also the Puromycin resistance gene. Transfection of both these vectors into HEK293 cells with PolyFect reagent (Qiagen) according to supplier's protocol, and hygromycin and puromycin treatment allowed selection of antibiotic resistant cells which had integrated stably one or more copies of the plasmids. Positive cellular clones expressing hmGluR4 were identified in a functional assay measuring changes in calcium flux in response to glutamate or selective known mGluR4 orthosteric agonists and antagonists. HEK-293 cells expressing hmGluR4 were maintained in media containing DMEM, dialyzed Fetal Calf Serum (10%), Glutamax™ (2 mM), Penicillin (100 units/mL), Streptomycin (100 μg/mL), Geneticin (100 μg/mL) and Hygromycin-B (40 μg/mL) and Puromycin (1 μg/mL) at 37° C./5% CO2.
Human mGluR4 HEK-293 cells were plated out 24 hours prior to FLIPR^384 assay in black-walled, clear-bottomed, poly-L-ornithine-coated 384-well plates at a density of 25,000 cells/well in a glutamine/glutamate free DMEM medium containing foetal bovine serum (10%), penicillin (100 units/mL) and streptomycin (100 μg/mL) at 37° C./5% CO2.
On the day of the assay, the medium was aspirated and the cells were loaded with a 3 μM solution of Fluo4-AM (LuBioScience, Lucerne, Switzerland) in 0.03% pluronic acid. After 1 hour at 37° C./5% CO2, the non incorporated dye was removed by washing cell plate with the assay buffer and the cells were left in the dark at it for six hours before testing. All assays were performed in a pH 7.4 buffered-solution containing 20 mM HEPES, 143 mM NaCl, 6 mM KCl, 1 mM MgSO4, 1 mM CaCl2, 0.125 mM sulfapyrazone and 0.1% glucose.
After 10 s of basal fluorescence recording, various concentrations of the compounds of the invention were added to the cells. Changes in fluorescence levels were first monitored for 180 s in order to detect any agonist activity of the compounds. Then the cells were stimulated by an EC25 glutamate concentration for an additional 110 s in order to measure enhancing activities of the compounds of the invention. EC25 glutamate concentration is the concentration giving 25% of the maximal glutamate response.
The concentration-response curves of representative compounds of the present invention were generated using the Prism GraphPad software (Graph Pad Inc, San Diego, USA). The curves were fitted to a four-parameter logistic equation:
(Y=Bottom+(Top−Bottom)/(1+10̂((Log EC50-X)*Hill Slope)
allowing the determination of EC50 values.
The Table 3 below represents the mean EC50 obtained from at least three independent experiments of selected molecules performed in duplicate.
For orientation: Calcium assays in cells follow changes in intracellular calcium, usually with a dye or a luminescent sensor.

T1 sequence (Q14833 33-912): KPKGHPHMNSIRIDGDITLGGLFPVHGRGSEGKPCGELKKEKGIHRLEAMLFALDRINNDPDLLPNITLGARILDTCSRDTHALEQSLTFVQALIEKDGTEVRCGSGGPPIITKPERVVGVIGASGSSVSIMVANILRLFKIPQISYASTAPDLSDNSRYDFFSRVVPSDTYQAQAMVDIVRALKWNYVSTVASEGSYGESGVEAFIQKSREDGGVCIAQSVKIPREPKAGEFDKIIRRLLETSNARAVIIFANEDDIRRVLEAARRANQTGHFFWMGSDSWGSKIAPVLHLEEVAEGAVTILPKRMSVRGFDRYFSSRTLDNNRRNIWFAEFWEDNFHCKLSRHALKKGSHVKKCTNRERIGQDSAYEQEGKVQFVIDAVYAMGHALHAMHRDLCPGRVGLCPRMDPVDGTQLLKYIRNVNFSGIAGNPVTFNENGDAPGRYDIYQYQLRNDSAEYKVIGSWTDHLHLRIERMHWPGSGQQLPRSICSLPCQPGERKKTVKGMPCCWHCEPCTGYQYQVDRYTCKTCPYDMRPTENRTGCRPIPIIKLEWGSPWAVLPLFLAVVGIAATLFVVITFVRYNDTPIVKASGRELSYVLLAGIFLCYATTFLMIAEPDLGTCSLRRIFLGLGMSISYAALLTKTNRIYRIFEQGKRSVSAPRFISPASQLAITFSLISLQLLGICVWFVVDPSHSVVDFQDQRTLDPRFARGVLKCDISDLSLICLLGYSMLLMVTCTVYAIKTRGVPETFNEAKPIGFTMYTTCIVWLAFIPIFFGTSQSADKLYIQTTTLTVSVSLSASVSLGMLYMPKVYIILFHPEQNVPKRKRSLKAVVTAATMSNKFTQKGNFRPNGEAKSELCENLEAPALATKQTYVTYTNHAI

In general, EC50 refers to the concentration that produces a half-maximal response. The term melting point denotes the temperature of the solid-liquid transition. In turn, `COc1ccc(F)cc1-c1n[nH]cc1-c1csc(Nc2nccc(C)n2)n1` [Compound 1-5, 4-(3-(5-Fluoro-2-methoxyphenyl)-1H-pyrazol-4-yl)-N-(4-methylpyrimidin-2-yl)thiazol-2-amine] showed a melting point of 247 °C. Moreover, the EC50 in series [1] was 0.1 to 1 µM.
`Cc1ccnc(Nc2nc(-c3c[nH]nc3C(=O)c3ccccc3)cs2)n1` [Compound 1-25, (4-(2-(4-Methylpyrimidin-2-ylamino)thiazol-4-yl)-1H-pyrazol-3-yl)(phenyl)methanone] gave a melting point of 254 to 255 °C.
For the compound `Cc1ccnc(Nc2nc(-c3c[nH]nc3C(O)c3ccccc3)cs2)n1` (stereo not drawn) [Compound 1-26, (4-(2-(4-Methylpyrimidin-2-ylamino)thiazol-4-yl)-1H-pyrazol-3-yl)(phenyl)methanol], the melting point was determined as 249.5 °C. In series [1], the EC50 fell in the range of 1 to 10 µM.
In the same order, the values of `Cc1ccnc(Nc2nc(-c3cn[nH]c3C(=O)C3CC3)cs2)n1` [Compound 1-27, Cyclopropyl(4-(2-(4-methylpyrimidin-2-ylamino)thiazol-4-yl)-1H-pyrazol-5-yl)methanone] are 239 to 240 °C and 0.1 to 1 µM.
Regarding `Cc1ccnc(Nc2nc(-c3c[nH]nc3-c3cccc(N(C)C)c3)cs2)n1` [Compound 1-30, 4-(3-(3-(Dimethylamino)phenyl)-1H-pyrazol-4-yl)-N-(4-methylpyrimidin-2-yl)thiazol-2-amine], the melting point lay in the range of 239 to 241 °C. In series [1], the EC50 was 1 to 10 µM.
`Cc1ccnc(Nc2nc(-c3cn[nH]c3-c3cccc(C#N)c3F)cs2)n1` [Compound 1-35, 2-Fluoro-3-(4-(2-(4-methylpyrimidin-2-ylamino)thiazol-4-yl)-1H-pyrazol-5-yl)benzonitrile]: in series [1], the EC50 is below 0.1 µM.
Still for that read-out and setting: the result for `COCc1n[nH]cc1-c1csc(Nc2ncc(F)cn2)n1` [Compound 1-37, N-(5-Fluoropyrimidin-2-yl)-4-(3-(methoxymethyl)-1H-pyrazol-4-yl)thiazol-2-amine] reads 1 to 10 µM; that for `CCc1ccnc(Nc2nc(-c3c[nH]nc3COC)cs2)n1` [Compound 1-38, N-(4-Ethylpyrimidin-2-yl)-4-(3-(methoxymethyl)-1H-pyrazol-4-yl)thiazol-2-amine], 1 to 10 µM.
Consider `COC(=O)N1CC=C(c2n[nH]cc2-c2csc(Nc3nccc(C)n3)n2)C1` [Compound 1-39, Methyl 3-(4-(2-(4-methylpyrimidin-2-ylamino)thiazol-4-yl)-1H-pyrazol-3-yl)-2,5-dihydro-1H-pyrrole-1-carboxylate], for which the EC50 in series [1] lay in the range of 0.1 to 1 µM.
As to `CC(=O)N1CC=C(c2n[nH]cc2-c2csc(Nc3nccc(C)n3)n2)CC1` [Compound 1-40, 1-(4-(4-(2-(4-Methylpyrimidin-2-ylamino)thiazol-4-yl)-1H-pyrazol-3-yl)-5,6-dihydropyridin-1(2H)-yl)ethanone], the EC50 in series [1] lay within 1 to 10 µM.
The same measure, in the same setting: the result for `COC(=O)N1CC=C(c2n[nH]cc2-c2csc(Nc3nccc(C)n3)n2)CC1` [Compound 1-41, Methyl 4-(4-(2-(4-methylpyrimidin-2-ylamino)thiazol-4-yl)-1H-pyrazol-3-yl)-5,6-dihydropyridine-1 (2H)-carboxylate] reads 1 to 10 µM; that for `Cc1ccnc(Nc2nc(-c3c[nH]nc3-c3cccc(N4CCC(O)C4)c3)cs2)n1` (stereo not drawn) [Compound 1-42, 1-(3-(4-(2-(4-Methylpyrimidin-2-ylamino)thiazol-4-yl)-1H-pyrazol-3-yl)phenyl)pyrrolidin-3-ol], 0.1 to 1 µM.
Same read-out and setting: the same measure for `Cc1nc(Nc2nc(-c3cn[nH]c3)c(C#N)s2)ns1` [Compound 1-44, 2-(5-Methyl-1,2,4-thiadiazol-3-ylamino)-4-(1H-pyrazol-4-yl)thiazole-5-carbonitrile]: below 0.1 µM; for `N#Cc1sc(Nc2nccnn2)nc1-c1cn[nH]c1` [Compound 1-45, 2-(1,2,4-Triazin-3-ylamino)-4-(1H-pyrazol-4-yl)thiazole-5-carbonitrile]: 0.1 to 1 µM.
`CC(=O)c1sc(Nc2nccc(C)n2)nc1-c1cn[nH]c1` [Compound 1-46, 1-(2-(4-Methylpyrimidin-2-ylamino)-4-(1H-pyrazol-4-yl)thiazol-5-yl)ethanone] had a melting point of 288 to 291 °C. For the same compound, the EC50 in series [1] lay within 0.1 to 1 µM.
Consider `CCOc1sc(Nc2nccc(C)n2)nc1-c1cn[nH]c1` [Compound 1-47, 5-Ethoxy-N-(4-methylpyrimidin-2-yl)-4-(1H-pyrazol-4-yl)thiazol-2-amine], for which the EC50 in series [1] was below 0.1 µM.

Values taken from patent publication US20130210809A1, “NOVEL 2-AMINO-4-PYRAZOLYL-THIAZOLE DERIVATIVES AND THEIR USE AS ALLOSTERIC MODULATORS OF METABOTROPIC GLUTAMATE RECEPTORS” (priority 2010, published 2013).
